# Source: US20160317430A1, “COSMETIC USE OF AN EXTRACT OF GYMNEMA SYLVESTRE” (LABORATOIRES CLARINS, priority 2013, published 2016)
# System: cytochrome C oxidase, complex IV of the respiratory chain
# Assay: Cytochrome C oxidase activity in human keratinocytes in culture, with or without H2O2 oxidative stress
# Type: cell-based
# Conditions: H2O2 alone (positive control), 24 h
# Protocol: The keratinocyte cultures were established using skin from human foreskins collected at circumcisions and were amplified in KGM2 medium (Keratinocyte Growth Medium, KGN2, clonetics) supplemented with insulin, EGF and pituitary extract. The tests were conducted on keratinocytes at the 3rd passage. The cells were inoculated in multi-well dishes at a rate of 1×10^6 cells. After 24 hours of incubation at 37° C. (5% CO2), the cells in the exponential growth phase were treated with Gymnema sylvestre extract at the concentrations of 0.125% and 0.25% alone or in the presence of H2O2.
# After 24 hours of treatment, the cells were sampled and then washed and resuspended in cold PBS. The evaluation of the cytochrome C oxidase activity was then carried out using the analysis kit (Cytochrome C Oxidase Assay Kit—Sigma) according to the protocol specified.
structure (smiles),measurement,value
"OO [H2O2, hydrogen peroxide]",% (cytochrome C oxidase activity vs negative control),−34%
same,"ATP mean (Table II, cytochrome C oxidase activity test)",0.87 nmol/10^7 cells
